Like-named read-outs stand apart in the source and are kept apart here.
Experiments:
Sprague-Dawley rats [1] = assay: animal or person; type: in vivo; details: rats; for ED50: LORR, up and down method, tail vein, class symbols
Text: Evaluating indicator: The end point of anesthesia: the disappearance of forepaw righting reflex (lorr) was used as the end point of anesthesia; General anesthesia effect: the disappearance of forepaw righting reflex in rats lasting for 30 seconds is taken as the index of general anesthesia effect; Anesthesia recovery index: the recovery of rat forepaw righting reflex was used as the index of anesthesia recovery.

SD rats = test system: SD rats
Protocol: Experimental Methods: Adult male SD rats with body weight ranging from 250 g to 350 g were selected for continuous infusion test.
Evaluation indexes: the time from the beginning of continuous infusion to the […] of sedation in rats; the time from the cessation of infusion to the restoration of the forepaw turning reflex after 1 hour of continuous infusion; the time from the cessation of infusion to the complete restoration of rats after 1 hour of continuous infusion.

Sprague-Dawley rats [2] = assay: Pharmacological effect and adverse reactions under the equivalent dose (2ED50), Group D compounds; type: in vivo; details: for Righting reflex duration / Sedation duration / Onset time: 2ED50, tail vein, rats, n=8; for Adverse reaction: Convulsions / Adverse reaction: Cough, broken-winded / Adverse reaction: Euphoria / Adverse reaction: Four limbs rigidity / Adverse reaction: Red urine / Adverse reaction: Slower breathing, Tetany convulsion / Adverse reaction: Systemic stiffness, Convulsions, Opisthotonus / Adverse reaction: Tongue stretching / Adverse reaction: Tremor: equivalent dose (2 × ED50), number of rats of n = 8
Text: Evaluation index: onset time: from the completion of drug injection to the disappearance of forepaw righting reflex in rats; Duration of anesthesia: the time from the disappearance of rat forepaw righting reflex to the recovery of rat forepaw righting reflex; Recovery time of anesthesia: the time from the […] to complete recovery;

Sprague-Dawley rats [3] = type: in vivo; details: tail vein
[4] = Rattus norvegicus, read-out: ED50
[5] = after 1 hour continuous infusion at 2 times the MIR, SD rats
[6] = continuous infusion 2 x MIR 1 hour, rats affected/rats

Compound	ED50 (Sprague-Dawley rats [1]; [4])	Approximate therapeutic index (Sprague-Dawley rats [1])	Righting reflex duration (Sprague-Dawley rats [2])	Sedation duration (Sprague-Dawley rats [2])	Onset time (Sprague-Dawley rats [2]; unit min)	Adverse reaction: Convulsions (Sprague-Dawley rats [2])	Adverse reaction: Cough, broken-winded (Sprague-Dawley rats [2])	Adverse reaction: Euphoria (Sprague-Dawley rats [2])	Adverse reaction: Four limbs rigidity (Sprague-Dawley rats [2])	Adverse reaction: Red urine (Sprague-Dawley rats [2])	Adverse reaction: Slower breathing, Tetany convulsion (Sprague-Dawley rats [2])	Adverse reaction: Systemic stiffness, Convulsions, Opisthotonus (Sprague-Dawley rats [2])	Adverse reaction: Tongue stretching (Sprague-Dawley rats [2])	Adverse reaction: Tremor (Sprague-Dawley rats [2])	Minimal lethal dose (Sprague-Dawley rats [3])	Onset time (Sprague-Dawley rats [2]; unit s)	further results
COC(OC)(OC)C(=O)c1cc(F)nn1[C@H](C)c1ccccc1 [Compound D17]	0.5 to 1 mg/kg	>4.5	0.86 ± 0.23 min	5.48 ± 0.50 min	<60 s	0	0	0	1	8	0	0	0	0	>11.9 mg/kg		After the infusion is stopped: Righting reflex recovery time (SD rats; [5]): 15 to 22 min; Recovery time after stopping infusion (SD rats; [5]): 25 to 35 min; Types and incidence of adverse reactions: Red urine (SD rats; [6]): 6/6; Types and incidence of adverse reactions: Tremor (SD rats; [6]): 1/6; Sedation onset time (SD rats; continuous tail vein infusion at 2 times the MIR, SD rats): <5 min
CCOC(OCC)C(=O)c1c(F)ncn1[C@H](C)c1ccccc1 [Compound D101]	0.04 to 0.5 mg/kg	>10.5	1.80 ± 0.58 min	7.20 ± 3.21 min		0	0	0	0	8	0	2	0	0	>9.3 mg/kg	<30 s	
CC(C)CCOC(=O)C(=O)c1cncn1[C@H](C)c1ccccc1 [Compound D82]	2 to 6 mg/kg	>6.3	0.98 ± 0.31 min	6.70 ± 1.46 min	<60 s	0	0	0	2	8	0	0	1	0	>7.8 mg/kg		
COC(OC)(OCC(C)(C)C)C(=O)c1ccnn1[C@H](C)c1ccccc1 [Compound D6]	2 to 6 mg/kg	>7.3	1.33 ± 0.19 min	7.35 ± 1.45 min	<60 s	0	0	0	1	8	0	0	0	2	>12.4 mg/kg		
COC(OC)(OC)C(=O)c1c(F)ncn1[C@H](C)c1ccccc1 [Compound D93]	0.04 to 0.5 mg/kg	>25.1	2.50 ± 0.30 min	6.89 ± 0.80 min		0	0	0	0	8	0	8	1	0	>1.8 mg/kg	<30 s	
CCOC(OC)(OCC)C(=O)c1cncn1[C@H](C)c1ccccc1 [Compound D79]	0.5 to 1 mg/kg	>6.4	1.75 ± 0.76 min	5.84 ± 1.46 min		6	0	0	0	8	0	0	0	1	>2.7 mg/kg	<30 s	
C=CCOCC(OC)(OC)C(=O)c1cncn1[C@H](C)c1ccccc1 [Compound D75]		>5.4	1.59 ± 0.67 min	5.28 ± 0.68 min		0	0	0	0	8	0	0	0	0	>11.2 mg/kg	<30 s	ED50 (Sprague-Dawley rats [1]): +++++ (+++++ indicates that the measured ED50 is greater than 6.00 mg/kg (excluding 6.00 mg/kg))
COC(OC)C(=O)c1cncn1[C@H](C)c1ccccc1 [Compound D87]	1 to 2 mg/kg	>6.8	4.34 ± 0.54 min	8.26 ± 2.74 min		0	0	0	0	8	0	5	0	0	>13.2 mg/kg	<30 s	
C[C@H](c1ccccc1)n1cncc1C(=O)C(=O)OCC(C)(C)C [Compound D86]	1 to 2 mg/kg	>7.3	1.24 ± 0.12 min	7.88 ± 1.94 min	<60 s	0	0	0	0	8	0	2	0	0	>9.8 mg/kg		
COC(=O)C(=O)c1cncn1[C@H](C)c1ccccc1 [Compound D80]	> 6 mg/kg	>2.9	1.58 ± 0.61 min	6.42 ± 1.68 min		0	0	0	4	8	0	0	0	0	>12.2 mg/kg	<30 s	

— patent US12570612B2, “Substituted nitrogen heterocyclic compound and anesthetic effect thereof” (priority 2019, dated 2026)
